Measured values taken from patent US12002595B2, “Separation of metal ions by liquid-liquid extraction” (priority 2016, dated 2024).

Tests used:
[1] = Stability constant (log β) of ligand-metal complexes; format: binding; conditions: Log β110 (Th^4+) versus Log β110 (Eu^3+)
Procedure: Solution Thermodynamics. All titrant solutions were degassed by boiling for 1 h while being purged under Ar. Carbonate-free 0.1 M KOH was prepared from concentrate (J. T Baker Dilut-It) and was standardized by titrating against 0.1 M potassium hydrogen phthalate (99.95%, Sigma Aldrich). Solutions of 0.1 M HCl were similarly prepared and were standardized by titrating against TRIS (99.9%, J. T. Baker). The glass electrode (Metrohm—Micro Combi—response to [H+]) used for the pH measurements was calibrated at 25.0° C. and at an ionic strength of 0.1 M (KCl) before each potentiometric or spectrophotometric titration. The calibration data were analyzed using the program GLEE (Gans & O'Sullivan, Talanta, 2000, 51 (1): 33-37) to refine for the E° and slope. All thermodynamic measurements were conducted at 25.0° C., in 0.1 M KCl supporting electrolyte under positive Ar gas pressure. The automated titration system was controlled by an 867 pH Module (Metrohm). Two-milliliter Dosino 800 burets (Metrohm) dosed the titrant (0.1 M KOH or 0.1 M HCl) into the thermostated titration vessel (5-90 mL). UV-visible spectra were acquired with an Ocean Optics USB4000-UV-vis spectrometer equipped with a TP-300 dip probe (Ocean Optics; path length of 10 mm), fiber optics and a DH-2000 light source (deuterium and halogen lamps). The fully automated titration system and the UV-vis spectrophotometer were coordinated by LBNL titration system, a computer program developed in house.
Incremental Spectrophotometric Titrations. This method was used to determine the protonation constants of 3,4,3-LI(CAM) as well as the stability constants of its complexes formed with Eu(III), Zr(IV) and ^232Th(IV). The experimental titration setup is similar to previously described systems (Sturzbecher-Hoehne, et al., Radiochimica Acta., 2013, 101 (6): 359-366). For the 3,4,3-LI(CAM) protonation (and Eu(III)-3,4,3-LI(CAM) complexes), titrations were performed with an initial concentration of 50 μM of 3,4,3-LI(CAM) (and 50 μM of Eu(III)) resulting in absorbance values included between 0 and 1.0 throughout the titration. Typically, 9 mL of a sample containing 3,4,3-LI(CAM) (and Eu(III)) and the supporting electrolyte (KCl/HCl) were incrementally perturbed by addition of 0.025 mL of carbonate-free 0.1 M KOH followed by a time delay of 80 s. Buffering of the solution was ensured by the addition of 10 mM of HEPES, 10 mM of CHES and 10 mM of MES. Between 130 and 250 data points were collected per titration, each data point including a pH measurement and a UV-Vis spectrum (250-450 nm) over the pH range 1.5 to 12.0. All spectra were corrected for dilution before data fitting. The entire procedure (electrode calibrate, titration and data treatment) was performed independently five times for the protonation constants and four times for the Eu(III)-3,4,3-LI(CAM) complexes. For the Zr(IV) and Th(IV) complexes, titrations were performed similarly but in the presence of DTPA to avoid the formation of metal hydroxides at low pH, before the uptake by 3,4,3-LI(CAM). For each metal, three titrations were performed independently in the presence of 1.1 to 40 equivalents of DTPA.
Data Treatment. […] All metal and chelator concentrations were held at estimated values determined from the volume of standardized stock solutions. All species formed with 3,4,3-LI(CAM) were considered to have significant absorbance to be observed in the UV-vis spectra and were therefore included in the refinement process. […]

[2] = Extraction of plutonium(IV) by HDEHP as a function of pH with hold-back reagent; conditions: for % Extraction: 40 mM hold-back reagent, 0.5 M HDEHP
Procedure: All liquid-liquid extractions were conducted using a 1:1 organic to aqueous phase ratio for a total volume of 1 mL. Samples were pH adjusted by HNO3 and prepared for a final concentration of 1.0 M sodium lactate, 40 mM of hold-back reagent (160 mM in the case of the HOPO monomer), and 2.0 M Na^+. The concentration of the trivalent f-element was dependent on the availability and radioactivity of the isotopes. The organic phase consisted of 0.5 M HDEHP in kerosene. All samples were incubated in a thermostatic shaker held at 28° C. and rocked at 280 rpm for 90 minutes. To ensure complete phase separation, samples were left overnight at room temperature to equilibrate. Radioactive samples were analyzed by liquid scintillation counting (LSC). The analytical protocol consisted of diluting 10 uL of radioactive sample into 10 mL of Ultima Gold™. Ultima Gold™ is a commercially available analytical reagent commonly used for LSC. The resulting analytical samples were shaken for 10 min prior to counting on a Perkin-Elmer Packard Tri-Carb instrument (model B4430).
Data was analyzed by the distribution ratio (Dm), separation factor (SFm1/m2) and extraction percentage (% Extraction) as defined by Equations (6), (7) and (8), respectively. Equation (8) uses concentrations of the metal in each phase since the aqueous: organic ratio was 1. Both the organic and aqueous phases were analyzed after liquid-liquid extraction and phase separation. These calculation methods rely on the assumptions that no metal (M) is lost to sorption or precipitation and that no volume variation occurred during the mass transfer between the aqueous and organic phases.
In FIG. 18, aqueous phase: [ligand]=40 mM, buffer sodium lactate/sodium nitrate, organic phase: [HDEHP]=0.5 M, kerosene diluent. T=25° C. O/A=1, one contact. Initial metal concentrations: [Pu-242]=5 μM. Phases analyzed after one contact. Contact time: 30 min. Limit of detection: 0.03% of the initial Pu-242 activity. Data for separation of tetravalent metal ions from trivalent metal ions using 3,4,3-LI(1,2-HOPO) as a hold-back reagent for tetravalent metal ions are shown in TABLE 0.1.

Row | Compound | Δ log β [1] | % Extraction ([2]; pH 0.25) | % Extraction ([2]; pH 0.85) | % Extraction ([2]; pH 1.78) | % Extraction ([2]; pH 2.71) | % Extraction ([2]; pH 2.87) | % Extraction ([2]; pH 3.62) | % Extraction ([2]; pH 4.52) | extraction yield of Pu^4+ (upper limit, instrumental detection limit) ([2]; value plotted on FIG. 18, all tested pH) | % Extraction ([2]; pH 0.40) | % Extraction ([2]; pH 1.27) | % Extraction ([2]; pH 1.84) | % Extraction ([2]; pH 2.55) | % Extraction ([2]; pH 2.75) | % Extraction ([2]; pH 3.45) | % Extraction ([2]; pH 4.29)
1 | O=C(NCCCN(CCCCN(CCCNC(=O)c1cccc(=O)n1O)C(=O)c1cccc(=O)n1O)C(=O)c1cccc(=O)n1O)c1cccc(=O)n1O [3,4,3-LI(1,2-HOPO)] | 19.9 | 0.00% | 0.00% | 0.00% | 0.00% | 0.00% | 0.00% | 0.00% | ≤ 0.03% | – | – | – | – | – | – | –
2 | O=C(O)CN(CCN(CC(=O)O)CC(=O)O)CCN(CC(=O)O)CC(=O)O [DTPA, Diethylenetriaminepentaacetic acid, reference compound] | 6.3 | – | – | – | – | – | – | – | – | 95.24% | 4.08% | 1.17% | 0.63% | 0.73% | 0.65% | 0.29%
